The values that follow come from PubChem BioAssay AID179 (DTP/NCI, 2004).

In this assay the test system is CEM cells HIV-1 protection, formazan growth assay. Put plainly: NCI AIDS Antiviral Assay. The note with it: for IC50: measured here: growth of uninfected CEM cells. A digest of the protocol:
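Soluble formazan readout of cell growth; CEM cells ± HIV-1; 5 drug concs. ≥50% protection → retest; ≥50% again = moderately active; reproducible 100% = confirmed active.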

SMILES strings stand for the structures. Calls of active or inactive are those of the source.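 How the source made its calls: active means compounds giving half or more protection of infected cells from virus-caused growth loss, again on retest; inactive means the rest.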

As for `O=S(=O)(c1cc(Cl)ccc1Cl)N1CCN(c2ccc(Cl)c(Cl)c2)CC1`, the EC50 – broadly, the concentration that produces a half-maximal response – is greater than 200 µM and the IC50 (in general, the concentration needed to halve the response being measured) was greater than 200 µM.
In the case of `COC(=O)Sc1c2sc(C(=O)OC)c(C)c2n2ccccc12`, the outcome was inactive.
`N#Cc1c(NC(=O)C(F)(F)F)sc2c3c(=O)c4ccccc4c(=O)c=3oc3ccccc3c12`: the EC50 is greater than 100 µM and the IC50 was found to be 17.4 µM.
The matching figures for `COc1cccc(-n2nnc3c(N)nc(N)nc32)c1`: greater than 200 µM and greater than 200 µM.
In the case of `C=C1OC(=O)/C(=C/CCCCCCCCCCCCCCCCC)[C@@H]1O`, the EC50 was greater than 27.5 µM and the concentration for half-maximal inhibition (IC50) is greater than 27.5 µM.
With `CCCCOC(=O)C1CN2C(=NC1(C(F)(F)F)C(F)(F)F)Sc1ccccc12` (configuration not stated), the outcome was inactive.
Take `CC1(C)C2CCC1(CS(=O)(=O)O)C(=O)C2` (configuration not stated): the EC50 is greater than 200 µM and the half-maximal inhibitory concentration (IC50) was greater than 200 µM.
As for `CNc1cc(Cl)ccc1S(=O)(=O)c1ccccc1[N+](=O)[O-]`, the half-maximal effective concentration (EC50) is 5.37 µM and the half-inhibitory concentration (IC50) is greater than 200 µM.
The matching figures for `CC[C@@]1(OC(=O)CN(C)C)C(=O)OCc2c1cc1n(c2=O)Cc2cc3ccccc3nc2-1`: greater than 10 µM and 0.0229 µM.
For `NNC(=O)C1CCC(=O)N1S(=O)(=O)c1ccccc1` (configuration not stated), the result was inactive.
On to `COc1cc(/C=C/C(=O)O)ccc1OS(=O)(=O)O`, for which the EC50 is greater than 200 µM and the 50% inhibitory concentration (IC50) is greater than 200 µM.
For the molecule `N#CC12C3C4C5C3C1n1c(=O)n(-c3ccccc3)c(=O)n1C5C42` (configuration not stated), the EC50 is greater than 200 µM and the half-inhibitory concentration (IC50) is greater than 200 µM.
As for `C=C[C@@H](C)[C@]1(C(=O)OC)CCCC12OCCO2`, the EC50 was greater than 282 µM and the IC50 was greater than 282 µM.
As for `NC(=O)C(=CNC(=S)c1cccnc1)C(N)=O`, the EC50 was greater than 200 µM and the concentration for half-maximal inhibition (IC50) came out at 74.1 µM.
The matching figures for `CCCCN(CCCC)C(=O)C(=O)C(C(=O)C(=O)OC)c1nc2ccccc2o1` (configuration not stated): greater than 33.9 µM and greater than 33.9 µM.
The like results for `O=c1[nH]c2c(cnn2-c2ccccc2)c(=O)n1OS(=O)(=O)c1ccccc1` were, in that order, greater than 200 µM and greater than 200 µM.
For `C/C(=C(/SS/C(C(=O)O)=C(/C)c1cccc(O)c1)C(=O)O)c1cccc(O)c1`, the EC50 is greater than 200 µM and the half-inhibitory concentration (IC50) worked out at 135 µM.
Regarding `Nc1ncnc2c1ncn2C1C(O)C(CO)C1CO` (configuration not stated), the EC50 was greater than 186 µM and the IC50 is greater than 186 µM.
With `O=C(/C=C/c1ccccc1)Oc1cccc2cccnc12`, the EC50 was greater than 200 µM and the IC50 turned out to be 3.63 µM.
The matching figures for `Cc1cc(-c2cccc3ccccc23)c(C#N)c(=S)n1C1OC(CO)C(O)C(O)C1O` (configuration not stated): greater than 200 µM and 66.1 µM.
On to `c1ccc(SSc2ccccc2)cc1`, for which the EC50 was greater than 200 µM and the IC50 worked out at 5.62 µM.
The matching figures for `COc1cccc(-c2nc(-c3cnccn3)n(Cc3ccccc3)n2)c1`: greater than 200 µM and greater than 200 µM.
The matching figures for `CC1(C)Oc2ccc(NC(=O)CCC(N)C(=O)O)cc2O1` (configuration not stated): 186 µM and greater than 200 µM.
The matching figures for `O=C(CNc1ccc(Cl)cc1Cl)Nn1c(-c2ccccc2)nc2ccccc2c1=O`: greater than 200 µM and 10.5 µM.
For `Nc1c(S(=O)(=O)O)cc2cc(S(=O)(=O)O)ccc2c1N=Nc1ccc(/C=C/c2ccc(N=Nc3c(N)c(S(=O)(=O)O)cc4cc(S(=O)(=O)O)ccc34)cc2S(=O)(=O)O)c(S(=O)(=O)O)c1`, the EC50 was 2.82 µM and the IC50 is 79.4 µM.
The matching figures for `CC12CC1C(c1cccc([N+](=O)[O-])c1)(c1cccc([N+](=O)[O-])c1)N=N2` (configuration not stated): greater than 200 µM and 13.5 µM.
As to `Cc1cc(S(=O)(=O)Nc2nc3cscc3c(=O)n2N)c(S)cc1Cl`, the EC50 is 33.9 µM and the IC50 is 132 µM.
The matching figures for `COc1cc2c(cc1OC)[C@H]1C(COC(=O)c3ccccc3)CSC(=Nc3ccccc3)N1CC2` (some centres not stated): greater than 10.2 µM and greater than 10.2 µM.
Consider `CC12C(=O)N(C3CCC(=O)NC3=O)C(=O)C1C1CCC2C1` (configuration not stated), for which the EC50 is greater than 200 µM and the IC50 is greater than 200 µM.
Take `Cc1ccc2c(CC(=O)O)cc(=O)oc2c1C`: the EC50 is greater than 200 µM and the 50% inhibitory concentration (IC50) was found to be 155 µM.
The matching figures for `O=C(COc1ccc(Cl)cc1)N1N=C(c2ccc([N+](=O)[O-])o2)CC1(O)c1ccccc1` (configuration not stated): greater than 16.2 µM and 2.88 µM.
Consider `Cc1cc(=O)n2c(cc3cccccc32)n1`, for which the outcome was inactive.
On to `CNC(=O)CN(CC(=O)O)C(=O)NC`, for which the EC50 was greater than 1230 µM and the IC50 is greater than 1230 µM.
In the case of `CCc1cc2c(c3c1CCCC3=O)CC1(Cc3ccc(C(=O)OC)cc3C1)C2` (configuration not stated), the EC50 is greater than 200 µM and the IC50 is 36.3 µM.
The matching figures for `COc1cc(N=Nc2ccccc2)cc(/C=N\[N-]C(N)=S)c1[O-].COc1cc(N=Nc2ccccc2)cc(/C=N\[N-]C(N)=S)c1[O-].[Fe+4]`: greater than 26.3 µM and greater than 26.3 µM.
The matching figures for `CN1N=C(c2ccncc2)OC1c1ccc(Cl)cc1Cl` (configuration not stated): greater than 200 µM and 85.1 µM.
The like results for `O=C(NNC(=O)c1ccccc1O)c1ccc(O)cc1` were, in that order, greater than 200 µM and 14.5 µM.
On to `CCCCc1ccc(Nc2nc(OC)c3ncn(C4CC(O)C(CO)O4)c3n2)cc1` (configuration not stated), for which the EC50 was greater than 200 µM and the concentration for half-maximal inhibition (IC50) amounted to 15.1 µM.
Consider `COC1(C)CNCC(C)(C)NC(=O)C(C)(OC)CNCC(C)(C)NC1=O` (configuration not stated), for which the EC50 was greater than 81.3 µM and the concentration for half-maximal inhibition (IC50) was greater than 81.3 µM.
With `COC1=CC(=O)C=C(CO)C1=O`, the EC50 was greater than 562 µM and the 50% inhibitory concentration (IC50) was 10 µM.
The like results for `COc1ccc2c(C)cc(N/N=C/c3ccc(C)s3)nc2c1` were, in that order, greater than 200 µM and 9.12 µM.
The like results for `Cc1cc(O)c(C=NC(=S)c2ccccc2)c(=O)o1` were, in that order, greater than 200 µM and greater than 200 µM.
`ClCCCN1CCN(CCCl)CC1`: the EC50 was greater than 832 µM and the half-inhibitory concentration (IC50) was determined as 21.4 µM.
The matching figures for `S=C(NNC1=NCCCCN1)Nc1ccc(Cl)cc1`: greater than 200 µM and 18.6 µM.
With `CCOC(=O)c1c(O)cn2c1[nH]c1cccc3cccc2c31`, the EC50 was greater than 100 µM and the IC50 was found to be 25.7 µM.
Consider `CC(=O)OC1CC2C(C)(C)C(=O)C=C[C@]2(C)C2CCC3(C)C(=CCC3[C@H](CO)C[C@H](O)C(=O)C(C)(C)O)[C@]12C` (some centres not stated), for which the EC50 was greater than 47.9 µM and the 50% inhibitory concentration (IC50) was 18.6 µM.
For the molecule `Clc1ccc(C2=NOC(C3CCCCC3)C2)cc1` (configuration not stated), the EC50 is greater than 38 µM and the IC50 is greater than 38 µM.
On to `N/C(=N\NS(=O)(=O)c1ccccc1)Oc1ccc(Br)cc1Br`, for which the EC50 was greater than 112 µM and the IC50 was greater than 112 µM.
Consider `C=C1C(C)C2C(Cc3ccccc3)NC(=O)C23C(OC(C)=O)C=CC(C)(O)C(=O)C(C)C/C=C/C3C1O` (configuration not stated), for which the EC50 was greater than 20 µM and the IC50 turned out to be 0.17 µM.
Consider `CCOC(=O)CO/N=C\C1=CC(=O)C2CC1C2(C)C` (configuration not stated), for which the EC50 is greater than 200 µM and the 50% inhibitory concentration (IC50) was greater than 200 µM.
With `N#Cc1nc(C#N)n(C(=O)c2ccccc2)c1NC(=O)c1ccccc1`, the EC50 was greater than 200 µM and the IC50 is greater than 200 µM.
For `CC1=CC(=O)C(C(O)(C(F)(F)F)C(F)(F)F)C(C)(C)C1` (configuration not stated), the EC50 is greater than 200 µM and the half-maximal inhibitory concentration (IC50) was greater than 200 µM.
For `C/C(CN1C(=O)c2ccccc2C1=O)=N\NS(=O)(=O)c1ccccc1`, the EC50 is greater than 20.4 µM and the IC50 is greater than 20.4 µM.
Regarding `C1=Nc2ccc(cc2)N=Cc2ccc(cc2)OCc2cccc(n2)COc2ccc1cc2`, the EC50 is greater than 100 µM and the IC50 is greater than 100 µM.
With `C/C(=N\NC(=O)c1ccccc1O)c1c(O)cc(C)oc1=O`, the EC50 is greater than 85.1 µM and the IC50 was determined as 70.8 µM.
The like results for `CCc1cccc(CC)c1NC(=S)N/C=C(\C#N)S(=O)(=O)c1ccc(C)cc1` were, in that order, greater than 200 µM and greater than 200 µM.
The matching figures for `COc1cc2c(c(C3C(=O)N(C)c4ccc(Br)cc43)c1OC)OCO2` (configuration not stated): greater than 200 µM and greater than 200 µM.
The like results for `CC1(C)CC(=O)C(/C=N/c2nc(-c3ccccc3)cs2)=C(O)C1` were, in that order, greater than 200 µM and greater than 200 µM.
As for `Cc1ccc(S(=O)(=O)N/N=C2\C=CC3(CC2)C(=O)N(I)c2ccccc23)cc1` (configuration not stated), the result was inactive.
Regarding `O=C1c2ccccc2C(=O)C2(C(c3ccccc3)c3ccccc3)N=NCC12` (configuration not stated), the EC50 is greater than 200 µM and the half-maximal inhibitory concentration (IC50) was 105 µM.
Turning to `Cc1c2c(C(N)=O)nccc2c(C)c2c1c1ccccc1n2Cc1ccccc1`, the outcome was inactive.
In the case of `Cc1cc(O)c(/C=N/c2nc(-c3ccc([N+](=O)[O-])cc3)cs2)c(=O)o1`, the EC50 is greater than 200 µM and the 50% inhibitory concentration (IC50) is greater than 200 µM.
As for `OCCN1CCOC(O)(c2cccc(C(F)(F)F)c2)C1` (configuration not stated), the EC50 was greater than 200 µM and the 50% inhibitory concentration (IC50) was 115 µM.
The like results for `NCCN1CC2CCC(CC2)C1` were, in that order, greater than 200 µM and 182 µM.
The matching figures for `CC(=N\N=C\c1ccccn1)/C(C)=N/N=C/c1ccccn1`: greater than 100 µM and 14.1 µM.
Turning to `Brc1nc2c3ccccc3ncn2c1Br`, the EC50 was greater than 30.2 µM and the IC50 stood at 14.8 µM.
`O=C(C[C@H](Cl)[C@H](NC(=O)OCc1ccccc1)C(=O)O)NO`: the outcome was inactive.
Still for that read-out and setting: next, `CC1=C(C)C(=O)c2c(cc3c4ccccc4ccn23)C1=O`: “inactive”.
As for `CN1C(=O)N(C)C(=O)C(Nc2ccc([N+](=O)[O-])cc2)(SCCO)C1=O`, the EC50 is 97.7 µM and the IC50 was found to be 363 µM.
Turning to `Cc1ccc(S(=O)(=O)N2CCN(S(=O)(=O)c3ccc(C)cc3)Cc3ccccc3C2)cc1`, the EC50 was greater than 200 µM and the IC50 is greater than 200 µM.
As for `S=C(NNC1=NCCCN1)Nc1ccccc1`, the EC50 is greater than 200 µM and the IC50 was 12.6 µM.
With `N#Cc1c([N+](=O)[O-])cc(C(F)(F)F)cc1[N+](=O)[O-]`, the result was inactive.
For the molecule `CN(/N=C(\C(=O)O)c1ccccc1)C1=NCCCCN1`, the EC50 is greater than 200 µM and the half-inhibitory concentration (IC50) is greater than 100 µM.
